Test [1] has as its target T1, human GIP receptor (bioGIPR) (Homo sapiens, UniProt P48546).
T1 construct: Biotinylate extracellular of the human GIP receptor (bioGIPR, Proteros biostructures GmbH, lot #02/2b); purchased Proteros biostructures GmbH lot #02/2b
T1 sequence (P48546 22-138 limits assumed): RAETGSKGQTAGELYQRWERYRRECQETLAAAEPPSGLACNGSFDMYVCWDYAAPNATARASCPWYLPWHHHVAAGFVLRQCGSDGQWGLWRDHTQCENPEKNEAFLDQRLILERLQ
The experiment in a line: Surface plasmon resonance (SPR) based binding assay. As to conditions: Single Cycle Kinetic mode, 25° C.; for t1/2 Category: SPR dissociation half-life; for Kd: SPR, 1:1 Langmuir binding model, read-out: pKD Category (converted). In short, it runs like this: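 Binding was measured at 25 °C by single-cycle kinetics against a reference flow cell, with blank-run and drift correction, after capturing biotinylated GIPR extracellular domain to ~3500 RU. Running buffer: HBST, 0.1% DMSO. A 1:1 Langmuir model gave kinetic rates, KD, t1/2 and pKD.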
A general note: In SPR one partner is held on a chip, and binding of the other changes the refractive index at the surface.

Test [2] deals with T2, GIPR (CHO-K1-hGIPR cells) (Homo sapiens, UniProt P48546).
T2 construct: host or cells: CHO-K1
T2 sequence (P48546 22-466): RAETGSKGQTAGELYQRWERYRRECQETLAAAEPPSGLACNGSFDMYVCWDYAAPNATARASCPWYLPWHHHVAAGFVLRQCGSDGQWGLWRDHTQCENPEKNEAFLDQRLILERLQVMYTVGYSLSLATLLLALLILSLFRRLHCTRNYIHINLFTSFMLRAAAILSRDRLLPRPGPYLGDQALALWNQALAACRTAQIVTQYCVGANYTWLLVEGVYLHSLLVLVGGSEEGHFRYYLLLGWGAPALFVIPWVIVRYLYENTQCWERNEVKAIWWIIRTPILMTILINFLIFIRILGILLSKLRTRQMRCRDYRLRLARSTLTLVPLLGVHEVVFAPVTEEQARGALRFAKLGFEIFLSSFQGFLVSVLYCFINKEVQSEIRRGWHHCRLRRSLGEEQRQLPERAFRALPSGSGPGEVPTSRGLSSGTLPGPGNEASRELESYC
As to the kind of experiment: FACS binding assay. As to conditions: competition with 20 nM GIP-057, 4° C., 1 hour, read-out: pIC50 Category (converted). In a few lines:
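CHO-K1 cells expressing human GIPR, washed in PBS/1% FCS, then stained with 1 μg/mL APC-streptavidin for 30 min on ice.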
On the technique in general: In flow cytometry, cells or beads pass a laser one at a time.

*1 amine or outer side, *2 acyl side, *3 side chain or, on linkers, in order; H or OH if unused. Where a SMILES comes first, the peptide text is derived from it. Bridges are numbered along the chain shown (N, C = ends). [ ]: non-standard residue; d: D form. The star is where a group is joined. X5 = NC(=O)[C@H](CCCCNC(=O)CN1CCN(CC(=O)O)CCN(CC(=O)O)CCN(CC(=O)O)CC1)NC(=O)CCC(=O)NCCCOCCOCCOCCCN*; X3 = O=C(O)CN1CCN(CC(=O)O)CCN(CC(=O)NCCCOCCOCCOCCCN*)CCN(CC(=O)O)CC1; DOTA = O=C(O)CN1CCN(CC(=O)O)CCN(CC(=O)*)CCN(CC(=O)O)CC1; Pro(cis-4-NHAc) = CC(=O)N[C@@H]1CN[C@H](C(=O)O)C1; Trp(5-Cl) = N[C@@H](Cc1c[nH]c2ccc(Cl)cc12)C(=O)O; Pyridine(2,6-diCH2) = c1cc(C[*:1])nc(C[*:2])c1; Pro(4S-NH2) = N[C@@H]1CN[C@H](C(=O)O)C1; Pro(4R-NH2) = N[C@H]1CN[C@H](C(=O)O)C1; X6 = c1cc(CSCCN[*:2])nc(C[*:1])c1; X7 = c1cc(CSCCN[*:2])cc(C[*:1])c1; Hyp = O=C(O)[C@@H]1C[C@@H](O)CN1; X1 = O=C(CN1CCC(N[*:1])CC1)[*:2]; Suc = O=C(CCC(=O)[*:2])[*:1]; Api = NC1(C(=O)O)CCNCC1; Thp = NC1(C(=O)O)CCOCC1; Aib = CC(C)(N)C(=O)O

As to `CC[C@H](C)[C@@H]1NC(=O)[C@H](CC(C)C)NC(=O)C(C)(C)NC(=O)[C@@H](NC(=O)[C@@H](CC(C)C)NC(=O)[C@H](CCC(=O)O)NC(=O)[C@@H]2C[C@H](N)CN2C(=O)[C@H](Cc2c[nH]c3ccc(Cl)cc23)NC(=O)[C@H](Cc2c[nH]c3ccccc23)NC(=O)[C@H](CC(=O)O)NC(=O)CCC(=O)NCCCOCCOCCOCCCNC(=O)CN2CCN(CC(=O)O)CCN(CC(=O)O)CCN(CC(=O)O)CC2)CSCc2cccc(c2)CSCCNC1=O` [GIP-096, DOTA-Ttds-Asp-Trp-5Clw-4Ap-Glu-leu-[Cys(3MeBn)-Aib-Leu-Ile-AET]] ({X3-Suc}-DW[Trp(5-Cl)][Pro(4S-NH2)]E[dL]C[Aib]LI; linker 7-C via X7), in test [1], the “t1/2 Category” value is reported as “A (t1/2 values>15 min)” and the Kd is less than 1 nM. Also, the IC50 in test [2] is less than 10 nM.

With `CC[C@H](C)[C@@H]1NC(=O)[C@H](CC(C)C)NC(=O)C2(CCN(C(C)=O)CC2)NC(=O)[C@@H](NC(=O)[C@@H](CC(C)C)NC(=O)[C@H](CCC(=O)O)NC(=O)[C@@H]2CCCN2C(=O)[C@H](Cc2c[nH]c3ccc(Cl)cc23)NC(=O)[C@H](Cc2c[nH]c3ccccc23)NC(=O)[C@H](CC(=O)O)NC(=O)CCC(=O)NCCCOCCOCCOCCCNC(=O)CN2CCN(CC(=O)O)CCN(CC(=O)O)CCN(CC(=O)O)CC2)CSCc2cccc(c2)CSCCNC1=O` [GIP-097, DOTA-Ttds-Asp-Trp-5Clw-Pro-Glu-leu-[Cys(3MeBn)-Apc(Ac)-Leu-Ile-AET]] ({X3-Suc}-DW[Trp(5-Cl)]PE[dL]C[Api](Ac)LI; linker 7-C via X7), in test [1], the “t1/2 Category” value is “A (t1/2 values>15 min)” and the Kd is less than 1 nM. For the same molecule, the IC50 in test [2] is less than 10 nM.

On to `CC[C@H](C)[C@@H]1NC(=O)[C@H](CC(C)C)NC(=O)C2(CCOCC2)NC(=O)[C@@H](NC(=O)[C@@H](CC(C)C)NC(=O)[C@H](CCC(=O)O)NC(=O)[C@@H]2C[C@@H](O)CN2C(=O)[C@H](Cc2c[nH]c3ccc(Cl)cc23)NC(=O)[C@H](Cc2c[nH]c3ccccc23)NC(=O)[C@H](CC(=O)O)NC(=O)CN2CCC(NC(=O)CN3CCN(CC(=O)O)CCN(CC(=O)O)CCN(CC(=O)O)CC3)CC2)CSCc2cccc(n2)CSCCNC1=O` [GIP-103, DOTA-APAc-Asp-Trp-5Clw-Hyp-Glu-leu-[Cys(2Lut)-Thp-Leu-Ile-AET]] ({DOTA}-[X1]DW[Trp(5-Cl)][Hyp]E[dL]C[Thp]LI; linker 8-C via X6), for which, in test [1], the “t1/2 Category” value is reported as “A (t1/2 values>15 min)” and the Kd is less than 1 nM. Besides, the IC50 in test [2] was less than 10 nM.

Turning to `CC[C@H](C)[C@@H]1NC(=O)[C@H](CC(C)C)NC(=O)C2(CCOCC2)NC(=O)[C@@H](NC(=O)[C@@H](CC(C)C)NC(=O)[C@H](CCC(=O)O)NC(=O)[C@@H]2C[C@@H](O)CN2C(=O)[C@H](Cc2c[nH]c3ccc(Cl)cc23)NC(=O)[C@H](Cc2c[nH]c3ccccc23)NC(=O)[C@H](CC(=O)O)NC(=O)CN2CCC(NC(=O)CN3CCN(CC(=O)O)CCN(CC(=O)O)CCN(CC(=O)O)CC3)CC2)CNCc2cccc(n2)CSCCNC1=O` [GIP-106, DOTA-APAc-Asp-Trp-5Clw-Hyp-Glu-leu-[Dap(2Lut)-Thp-Leu-Ile-AET]], in test [1], the “t1/2 Category” value is “A (t1/2 values>15 min)” and the Kd is 1 to 7.94 nM. In test [2], the IC50 is less than 10 nM.

`CC[C@H](C)[C@@H]1NC(=O)[C@H](CC(C)C)NC(=O)C2(CCOCC2)NC(=O)[C@@H](NC(=O)[C@@H](CC(C)C)NC(=O)[C@H](CCC(=O)O)NC(=O)[C@@H]2C[C@@H](O)CN2C(=O)[C@H](Cc2c[nH]c3ccc(Cl)cc23)NC(=O)[C@H](Cc2c[nH]c3ccccc23)NC(=O)[C@H](CC(=O)O)NC(=O)CN2CCC(NC(=O)CN3CCN(CC(=O)O)CCN(CC(=O)O)CCN(CC(=O)O)CC3)CC2)CNCc2cccc(c2)CSCCNC1=O` [GIP-107, DOTA-APAc-Asp-Trp-5Clw-Hyp-Glu-leu-[Dap(3MeBn)-Thp-Leu-Ile-AET]]: in test [1], the “t1/2 Category” value is “A (t1/2 values>15 min)” and the Kd is less than 1 nM. Moreover, the IC50 in test [2] is less than 10 nM.

Regarding `CC[C@H](C)[C@@H]1NC(=O)[C@H](CC(C)C)NC(=O)C2(CCOCC2)NC(=O)[C@@H](NC(=O)[C@@H](CC(C)C)NC(=O)[C@H](CCC(=O)O)NC(=O)[C@@H]2C[C@@H](O)CN2C(=O)[C@H](Cc2c[nH]c3ccc(Cl)cc23)NC(=O)[C@H](Cc2c[nH]c3ccccc23)NC(=O)CCC(=O)O)CSCc2cccc(n2)CSC[C@@H](C(=O)NCCCOCCOCCOCCCNC(=O)CCC(=O)N[C@@H](CCCCNC(=O)CN2CCN(CC(=O)O)CCN(CC(=O)O)CCN(CC(=O)O)CC2)C(N)=O)NC1=O` [GIP-108, HO-Succinyl-Trp-5Clw-Hyp-Glu-leu-[Cys(2Lut)-Thp-Leu-Ile-Cys]-Ttds-Lys(DOTA)-NH2] (Suc-W[Trp(5-Cl)][Hyp]E[dL]C[Thp]LIC-X5; linker 6-10 via Pyridine(2,6-diCH2)), in test [1], the “t1/2 Category” value is recorded as “A (t1/2 values>15 min)” and the Kd is less than 1 nM. The IC50 in test [2] was less than 10 nM.

For `CC[C@H](C)[C@@H]1NC(=O)[C@H](CC(C)C)NC(=O)C2(CCOCC2)NC(=O)[C@@H](NC(=O)[C@@H](CC(C)C)NC(=O)[C@H](CCC(=O)O)NC(=O)[C@@H]2C[C@@H](O)CN2C(=O)[C@H](Cc2c[nH]c3ccc(Cl)cc23)NC(=O)[C@H](Cc2c[nH]c3ccccc23)NC(=O)CCC(=O)O)CSCc2cccc(n2)CSC[C@@H](C(=O)NC2CCN(CC(=O)N[C@@H](CCCCNC(=O)CN3CCN(CC(=O)O)CCN(CC(=O)O)CCN(CC(=O)O)CC3)C(N)=O)CC2)NC1=O` [GIP-109, HO-Succinyl-Trp-5Clw-Hyp-Glu-leu-[Cys(2Lut)-Thp-Leu-Ile-Cys]-APAc-Lys(DOTA)-NH2] (Suc-W[Trp(5-Cl)][Hyp]E[dL]C[Thp]LIC[X1]K(DOTA)-NH2; linker 6-10 via Pyridine(2,6-diCH2)), in test [1], the “t1/2 Category” value is reported as “A (t1/2 values>15 min)” and the Kd is less than 1 nM. Moreover, in test [2], the IC50 was less than 10 nM.

Take `CC[C@H](C)[C@@H]1NC(=O)[C@H](CC(C)C)NC(=O)C2(CCN(C(=O)CN3CCN(CC(=O)O)CCN(CC(=O)O)CCN(CC(=O)O)CC3)CC2)NC(=O)[C@@H](NC(=O)[C@@H](CC(C)C)NC(=O)[C@H](CCC(=O)O)NC(=O)[C@@H]2C[C@@H](O)CN2C(=O)[C@H](Cc2c[nH]c3ccc(Cl)cc23)NC(=O)[C@H](Cc2c[nH]c3ccccc23)NC(=O)CCC(=O)O)CSCc2cccc(n2)CSCCNC1=O` [GIP-110, HO-Succinyl-Trp-5Clw-Hyp-Glu-leu-[Cys(2Lut)-Apc(DOTA)-Leu-Ile-AET]] (Suc-W[Trp(5-Cl)][Hyp]E[dL]C[Api](DOTA)LI; linker 6-C via X6): in test [1], the “t1/2 Category” value is given as “A (t1/2 values>15 min)” and the Kd is less than 1 nM. The IC50 in test [2] is less than 10 nM.

As to `CC[C@H](C)[C@@H]1NC(=O)[C@H](CC(C)C)NC(=O)C(C)(C)NC(=O)[C@@H](NC(=O)[C@@H](CC(C)C)NC(=O)[C@H](CCC(=O)O)NC(=O)[C@@H]2C[C@H](NC(C)=O)CN2C(=O)[C@H](Cc2c[nH]c3ccc(Cl)cc23)NC(=O)[C@H](Cc2c[nH]c3ccccc23)NC(=O)[C@H](CC(=O)O)NC(=O)CCC(=O)NCCCOCCOCCOCCCNC(=O)CN2CCN(CC(=O)O)CCN(CC(=O)O)CCN(CC(=O)O)CC2)CSCc2cccc(c2)CSCCNC1=O` [GIP-111, DOTA-Ttds-Asp-Trp-5Clw-4Ap(Ac)-Glu-leu-[Cys(3MeBn)-Aib-Leu-Ile-AET]] ({X3-Suc}-DW[Trp(5-Cl)][Pro(cis-4-NHAc)]E[dL]C[Aib]LI; linker 7-C via X7), in test [1], the “t1/2 Category” value is recorded as “A (t1/2 values>15 min)” and the Kd is 1 to 7.94 nM. Besides, the IC50 in test [2] is less than 10 nM.

Turning to `CC[C@H](C)[C@@H]1NC(=O)[C@H](CC(C)C)NC(=O)C2(CCNCC2)NC(=O)[C@@H](NC(=O)[C@@H](CC(C)C)NC(=O)[C@H](CCC(=O)O)NC(=O)[C@@H]2C[C@@H](N)CN2C(=O)[C@H](Cc2c[nH]c3ccc(Cl)cc23)NC(=O)[C@H](Cc2c[nH]c3ccccc23)NC(=O)[C@H](CC(=O)O)NC(=O)CCC(=O)NCCCOCCOCCOCCCNC(=O)CN2CCN(CC(=O)O)CCN(CC(=O)O)CCN(CC(=O)O)CC2)CSCc2cccc(c2)CSCCNC1=O` [GIP-112, DOTA-Ttds-Asp-Trp-5Clw-Tap-Glu-leu-[Cys(2Lut)-Apc-Leu-Ile-AET]] ({X3-Suc}-DW[Trp(5-Cl)][Pro(4R-NH2)]E[dL]C[Api]LI; linker 7-C via X7), in test [1], the “t1/2 Category” value is recorded as “A (t1/2 values>15 min)” and the Kd was less than 1 nM. For the same molecule, the IC50 in test [2] was less than 10 nM.

These data come from patent US20250296971A1, “GASTRIC INHIBITORY PEPTIDE RECEPTOR LIGANDS” (priority 2021, published 2025).
